Laboratory results: patent EP0471221B1, “Herbicidal compositions” (IDEMITSU KOSAN COMPANY LIMITED, priority 1990, dated 1992)

Tests used:
[1] = tested on: Galium aparine L.; test: Test on post-emergence treatment (greenhouse pots, foliage spray); assay type: in vivo; conditions: after 20 days
Text: (§1) By uniformly blending 97 parts of clay (trademark: JIKURAITO, manufactured by JIKURAITO KOGYO) as the carrier, 1.5 parts of alkylaryl sulfonate (trademark: NEOPELEX, manufactured by Kao Atlas Co., Ltd.) as the surfactant, 1.5 parts of nonionic and anionic surfactant (trademark: Solpol 800A, manufactured by Toho Chemical Industry Co., Ltd.) and grinding into a powder, a carrier for wettable powders was obtained.
(§2) By uniformly blending 90 parts of this carrier for wettable powders and 10 parts of the triazine derivative shown in Table 1 (Compounds A-1 through A-7) or 10 parts of the thiocarbamate type herbicide shown in Table 2 (Compounds B) and grinding into a powder, wettable powders were obtained.
(§3) Furthermore, the carrier for wettable powders containing the triazine derivative obtained above was blended with the carrier for wettable powders containing the thiocarbamate type herbicide in definite amounts (ratios as active ingredients), uniformly kneaded and ground into powders to give wettable powders.
(§4) Wagner's pots of 1/2000 ares were filled with soil from upland fields and planted with weed seeds of Alopecurus myosuroides, Galium aparine L., Veronica hederifolia and Viola arvensis and crop seeds of wheat, barley and oat. The seeds were then covered with soil and cultivated in a greenhouse. An aqueous suspension of a definite amount of the herbicide obtained in Formulation Example 6 was uniformly sprayed onto the foliage of 1.5 to 2.5 leaf stage of these weeds and 3 leaf stage of the crops at a spray volume corresponding to 100 liters/10 ares. Then, cultivation was performed in the greenhouse. After 20 days, crop injury and the herbicidal effect on the weeds were evaluated according to the criterion described below.
(§5) The herbicidal rate described above was determined according to the following equation by measuring the raw weight of weed on the ground in the treated group and the raw weight of weed on the ground in the untreated group. [formula]
(§6) Some data were extracted from the results shown in Table 3 and the synergistic effect of the triazine derivative and the thiocarbamate type herbicide was examined on Galium aparine L. and Viola arvensis according to the following method. [formula] Q a : found data (%) of herbicidal rate when treated at a dosage corresponding to a g/10 ares using the triazine derivative alone as active ingredient Q b : found data (%) of herbicidal rate when treated at a dosage corresponding to b g/10 ares using the thiocarbamate type herbicide alone as active ingredient Q E : expected value [Limpel, L.E., P.H. Schuldt and D. Lamont, Proc. NEWCC, 16, 48-53 (1962)] Herein, when the found data (herbicidal rate) of the herbicidal obtained by mixing the triazine derivative and the thiocarbamate type herbicide is larger than Q E, it can be said that the herbicidal activity is synergistic.

[2] = tested on: Viola arvensis; test: as above; assay type: in vivo; conditions: after 20 days
Text: as §1, §2, §3, §4, §5, §6

[3] = triazine derivative alone, 10 g/10a
[4] = triazine derivative alone, 5 g/10a
[5] = thiocarbamate type herbicide alone, 100 g/10a

Compound: CC(Nc1nc(N)nc(C(C)(C)F)n1)c1cc2ccccc2o1 (stereo not drawn) [A₁, 2-amino-4-[1-(benzofuran-2'-yl)ethylamino]-6-(α-fluoro,α-methylethyl)-s-triazine]
- Percent control of Galium aparine L.(%) [1, 3]: 38%
- Percent control of Viola arvensis(%) [2, 3]: 54%

Compound: CC(F)c1nc(N)nc(NC(C)c2cc3ccccc3o2)n1 (stereo not drawn) [A₂, 2-amino-4-[1-(benzofuran-2'-yl)ethylamino]-6-(α-fluoroethyl)-s-triazine]
- Percent control of Galium aparine L.(%) [1, 4]: 37%
- Percent control of Viola arvensis(%) [2, 4]: 68%

Compound: CC(Nc1nc(N)nc(C(C)(C)F)n1)c1cc2ccccc2s1 (stereo not drawn) [A₃, 2-amino-4-[1-(benzothiophen-2'-yl)ethylamino]-6-(α-fluoro,α-methylethyl)-s-triazine]
- Percent control of Galium aparine L.(%) [1, 3]: 56%
- Percent control of Viola arvensis(%) [2, 3]: 64%

Compound: Cc1cccc(OCC(C)Nc2nc(N)nc(C(C)(C)F)n2)c1 (stereo not drawn) [A₄, 2-amino-4-(α-fluoro,α-methylethyl)-6-[2-(3'-methylphenoxy)-1-methylethylamino]-s-triazine]
- Percent control of Galium aparine L.(%) [1, 3]: 62%
- Percent control of Viola arvensis(%) [2, 3]: 74%

Compound: CC(COc1cccc(F)c1)Nc1nc(N)nc(C(C)(C)F)n1 (stereo not drawn) [A₅, 2-amino-4-(α-fluoro,α-methylethyl)-6-[2-(3'fluorophenoxy)-1-methylethylamino]-s-triazine]
- Percent control of Galium aparine L.(%) [1, 4]: 38%
- Percent control of Viola arvensis(%) [2, 4]: 72%

Compound: Cc1cc(C)cc(OCC(C)Nc2nc(N)nc(C(C)(C)Cl)n2)c1 (stereo not drawn) [A₆, 2-amino-4-(α-chloro,α-methylethyl)-6-[2-(3',5'-dimethylphenoxy)-1-methylethylamino]-s-triazine]
- Percent control of Galium aparine L.(%) [1, 3]: 64%
- Percent control of Viola arvensis(%) [2, 3]: 78%

Compound: Cc1cc(C)cc(OCC(C)Nc2nc(N)nc(C(C)(C)F)n2)c1 (stereo not drawn) [A₇, 2-amino-4-(α-fluoro,α-methylethyl)-6-[2-(3',5'-dimethylphenoxy)-1-methylethylamino]-s-triazine]
- Percent control of Galium aparine L.(%) [1, 4]: 40%
- Percent control of Viola arvensis(%) [2, 4]: 63%

Compound: CCCN(CCC)C(=O)SCc1ccccc1 [B, S-benzyldipropyl thiocarbamate, reference compound]
- Percent control of Galium aparine L.(%) [1, 5]: 36%
- Percent control of Viola arvensis(%) [2, 5]: 19%
